# Source: article PMC6934184, “Selective DNA-PKcs inhibition extends the therapeutic index of localized radiotherapy and chemotherapy” (The Journal of Clinical Investigation, 2019)
# Biological target: T1, LATS1 (Homo sapiens, UniProt O95835)
# T1 construct: purchased Thermo Fisher Scientific (Life Technologies) SelectScreen
# Assay: SelectScreen LanthaScreen
# Type: binding
# Conditions: read-out: % displacement
# Method in brief: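 Percent values come from Thermo SelectScreen profiling of NU5455, combining activity and binding assays. CSF1R was run in Z'LYTE format at Km app ATP, and CAMK1 in Adapta format with ATP listed at 10.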
# T1 sequence (O95835 whole entry): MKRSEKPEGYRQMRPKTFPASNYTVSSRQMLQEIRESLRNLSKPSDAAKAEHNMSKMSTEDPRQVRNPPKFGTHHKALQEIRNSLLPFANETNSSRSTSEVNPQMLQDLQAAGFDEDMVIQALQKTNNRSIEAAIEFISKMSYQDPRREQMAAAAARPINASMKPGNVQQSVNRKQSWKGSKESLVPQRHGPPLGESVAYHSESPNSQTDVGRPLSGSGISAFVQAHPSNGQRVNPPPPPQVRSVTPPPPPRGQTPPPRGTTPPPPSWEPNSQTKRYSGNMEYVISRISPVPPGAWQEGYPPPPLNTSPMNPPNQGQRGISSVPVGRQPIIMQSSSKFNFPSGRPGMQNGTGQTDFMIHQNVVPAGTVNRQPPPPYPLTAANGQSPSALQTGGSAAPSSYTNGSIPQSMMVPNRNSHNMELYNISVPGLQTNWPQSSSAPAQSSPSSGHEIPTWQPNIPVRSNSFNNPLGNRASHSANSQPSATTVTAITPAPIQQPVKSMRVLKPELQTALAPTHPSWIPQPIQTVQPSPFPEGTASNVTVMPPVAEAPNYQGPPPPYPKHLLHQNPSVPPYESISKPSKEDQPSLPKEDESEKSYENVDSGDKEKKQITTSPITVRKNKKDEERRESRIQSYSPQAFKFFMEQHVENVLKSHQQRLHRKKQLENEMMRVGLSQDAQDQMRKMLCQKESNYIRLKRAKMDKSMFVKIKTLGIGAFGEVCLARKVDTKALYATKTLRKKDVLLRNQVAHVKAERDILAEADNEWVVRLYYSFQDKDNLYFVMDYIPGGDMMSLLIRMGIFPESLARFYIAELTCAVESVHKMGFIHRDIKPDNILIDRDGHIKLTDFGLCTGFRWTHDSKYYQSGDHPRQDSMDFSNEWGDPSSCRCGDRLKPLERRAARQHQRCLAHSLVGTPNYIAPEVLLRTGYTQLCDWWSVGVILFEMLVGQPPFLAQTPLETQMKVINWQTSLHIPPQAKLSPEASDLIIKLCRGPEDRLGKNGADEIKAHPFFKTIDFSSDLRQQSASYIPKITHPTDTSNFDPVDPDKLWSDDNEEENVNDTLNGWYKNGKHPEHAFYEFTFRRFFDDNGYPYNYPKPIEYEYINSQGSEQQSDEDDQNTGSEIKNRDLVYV
smiles,measurement,value
CN(C(=O)CN1CCOCC1)c1ccc2sc3c(-c4cccc5c(=O)cc(N6CC7CCC(C6)O7)oc45)cccc3c2c1 [NU5455],inhibition at 1 µM,-1.3%
